# Test results reported in patent US20110136666A1, “CHEMICAL COMPOUNDS” (SYNGENTA CROP PROTECTION, INC., priority 2008, published 2011).
# Key:
# Type in all cases: in vivo
# [1] = tested on: Amaranthus retroflexus (AMARE); experiment: Post-emergence biological efficacy, glasshouse pot test; settings: 312 h, after 13 days, 100=total damage, 0=no damage, read-out: Percentage damage caused to weed species AMARE
# Procedure: (§1) Seeds of Alopecurus myosuroides (ALOMY), Setaria faberi (SETFA), Echinochloa crus-galli (ECHCG), Solanum nigrum (SOLNI), Amaranthus retroflexus (AMARE) and Ipomea hederaceae (IPOHE) were sown in standard soil in pots. After cultivation for 8 days under controlled conditions in a glasshouse (at 24/16° C., day/night; 14 hours light; 65% humidity), the plants were sprayed with an aqueous spray solution derived from the formulation of the technical active ingredient in acetone/water (50:50) solution containing 0.5% Tween 20 (polyoxyethylene sorbitan monolaurate, CAS RN 9005-64-5) to give a final dose of 250 or 1000 g/ha of test compound.
# (§2) The test plants were then grown on under controlled conditions in a glasshouse (at 24/16° C., day/night; 14 hours light; 65% humidity) and watered twice daily. After 13 days the test was evaluated (100=total damage to plant; 0=no damage to plant).
# Setaria faberi (SETFA) [2] = experiment: as above; settings: 312 h, after 13 days, 100=total damage, 0=no damage, read-out: Percentage damage caused to weed species SETFA
# Procedure: as §1, §2
# [3] = tested on: Ipomea hederaceae (IPOHE); experiment: as above; settings: Ipomoea hederacea, 312 h, after 13 days, 100=total damage, 0=no damage, read-out: Percentage damage caused to weed species IPONE
# Procedure: as §1, §2
# [4] = tested on: Echinochloa crus-galli (ECHCG); experiment: as above; settings: 312 h, after 13 days, 100=total damage, 0=no damage, read-out: Percentage damage caused to weed species ECHCG
# Procedure: as §1, §2
# [5] = tested on: Alopecurus myosuroides (ALOMY); experiment: as above; settings: 312 h, after 13 days, 100=total damage, 0=no damage, read-out: Percentage damage caused to weed species ALOMY
# Procedure: as §1, §2
# Solanum nigrum (SOLNI) [6] = experiment: as above; settings: 312 h, after 13 days, 100=total damage, 0=no damage, read-out: Percentage damage caused to weed species SOLNI
# Procedure: as §1, §2
# [7] = tested on: Amaranthus retroflexus (AMARE); experiment: Pre-emergence biological efficacy, glasshouse pot test; settings: 312 h, after 13 days, 100=total damage, 0=no damage, read-out: Percentage damage caused to weed species AMARE
# Procedure: as §1, with “one day” for “8 days”
# (§3) The test plants were then grown under controlled conditions in the glasshouse (at 24/16° C., day/night; 14 hours light; 65% humidity) and watered twice daily. After 13 days the test was evaluated (100=total damage to plant; 0=no damage to plant).
# Setaria faberi (SETFA) [8] = experiment: as above; settings: 312 h, after 13 days, 100=total damage, 0=no damage, read-out: Percentage damage caused to weed species SETFA
# Procedure: as §1, with “one day” for “8 days”
# as §3
# [9] = tested on: Ipomea hederaceae (IPOHE); experiment: as above; settings: Ipomoea hederacea, 312 h, after 13 days, 100=total damage, 0=no damage, read-out: Percentage damage caused to weed species IPOHE
# Procedure: as §1, with “one day” for “8 days”
# as §3
# [10] = tested on: Echinochloa crus-galli (ECHCG); experiment: as above; settings: 312 h, after 13 days, 100=total damage, 0=no damage, read-out: Percentage damage caused to weed species ECHCG
# Procedure: as §1, with “one day” for “8 days”
# as §3
# [11] = tested on: Alopecurus myosuroides (ALOMY); experiment: as above; settings: 312 h, after 13 days, 100=total damage, 0=no damage, read-out: Percentage damage caused to weed species ALOMY
# Procedure: as §1, with “one day” for “8 days”
# as §3
# Solanum nigrum (SOLNI) [12] = experiment: as above; settings: 312 h, after 13 days, 100=total damage, 0=no damage, read-out: Percentage damage caused to weed species SOLNI
# Procedure: as §1, with “one day” for “8 days”
# as §3
structure (smiles),measurement,setting,value
"COC(=O)c1nc(-c2ccoc2)nc(N)c1Cl [Compound 2-34, 4-Amino-5-chloro-2-(furan-3-yl)-6-methoxycarbonyl pyrimidine]",pest or weed control at 1000 g/ha,[1],30%
same,pest or weed control at 1000 g/ha,Setaria faberi (SETFA) [2],0%
same,pest or weed control at 1000 g/ha,[3],50%
same,pest or weed control at 1000 g/ha,[4],0%
same,pest or weed control at 1000 g/ha,[5],10%
same,pest or weed control at 1000 g/ha,Solanum nigrum (SOLNI) [6],10%
same,pest or weed control at 1000 g/ha,[7],0%
same,pest or weed control at 1000 g/ha,Setaria faberi (SETFA) [8],0%
same,pest or weed control at 1000 g/ha,[9],0%
same,pest or weed control at 1000 g/ha,[10],0%
same,pest or weed control at 1000 g/ha,[11],0%
same,pest or weed control at 1000 g/ha,Solanum nigrum (SOLNI) [12],0%
"COC(=O)c1nc(-c2ccc(Cl)s2)nc(N)c1Cl [Compound 2-2, 4-Amino-5-chloro-2-(5-chlorothiophen-2-yl)-6-methoxycarbonyl pyrimidine]",pest or weed control at 1000 g/ha,[1],100%
same,pest or weed control at 1000 g/ha,Setaria faberi (SETFA) [2],0%
same,pest or weed control at 1000 g/ha,[3],70%
same,pest or weed control at 1000 g/ha,[4],0%
same,pest or weed control at 1000 g/ha,[5],0%
same,pest or weed control at 1000 g/ha,Solanum nigrum (SOLNI) [6],90%
same,pest or weed control at 1000 g/ha,[7],80%
same,pest or weed control at 1000 g/ha,Setaria faberi (SETFA) [8],0%
same,pest or weed control at 1000 g/ha,[9],20%
same,pest or weed control at 1000 g/ha,[10],0%
same,pest or weed control at 1000 g/ha,[11],0%
same,pest or weed control at 1000 g/ha,Solanum nigrum (SOLNI) [12],0%
"COC(=O)c1nc(-c2cscc2C)nc(N)c1Cl [Compound 2-17, 4-Amino-5-chloro-6-methoxycarbonyl-2-(4-methylthiophen-3-yl)-pyrimidine]",pest or weed control at 250 g/ha,[1],0%
same,pest or weed control at 250 g/ha,Setaria faberi (SETFA) [2],0%
same,pest or weed control at 250 g/ha,[3],0%
same,pest or weed control at 250 g/ha,[4],0%
same,pest or weed control at 250 g/ha,[5],0%
same,pest or weed control at 250 g/ha,Solanum nigrum (SOLNI) [6],0%
same,pest or weed control at 250 g/ha,[7],50%
same,pest or weed control at 250 g/ha,Setaria faberi (SETFA) [8],0%
same,pest or weed control at 250 g/ha,[9],0%
same,pest or weed control at 250 g/ha,[10],0%
same,pest or weed control at 250 g/ha,[11],0%
same,pest or weed control at 250 g/ha,Solanum nigrum (SOLNI) [12],0%
"Nc1nc(-c2ccc(Cl)s2)nc(C(=O)O)c1Cl [Compound 1-2, 4-amino-5-chloro-2-(5-chlorothiophen-2-yl)-pyrimidine-6-carboxylic acid]",pest or weed control at 1000 g/ha,[1],100%
same,pest or weed control at 1000 g/ha,Setaria faberi (SETFA) [2],50%
same,pest or weed control at 1000 g/ha,[3],60%
same,pest or weed control at 1000 g/ha,[4],20%
same,pest or weed control at 1000 g/ha,[5],10%
same,pest or weed control at 1000 g/ha,Solanum nigrum (SOLNI) [6],80%
same,pest or weed control at 1000 g/ha,[7],100%
same,pest or weed control at 1000 g/ha,Setaria faberi (SETFA) [8],0%
same,pest or weed control at 1000 g/ha,[9],0%
same,pest or weed control at 1000 g/ha,[10],0%
same,pest or weed control at 1000 g/ha,[11],0%
same,pest or weed control at 1000 g/ha,Solanum nigrum (SOLNI) [12],30%
"COC(=O)c1nc(-c2ccc(C#N)s2)nc(N)c1Cl [Compound 2-3, 4-Amino-5-chloro-2-(5-cyanothiophen-2-yl)-6-methoxycarbonyl pyrimidine]",pest or weed control at 1000 g/ha,[1],0%
same,pest or weed control at 1000 g/ha,Setaria faberi (SETFA) [2],0%
same,pest or weed control at 1000 g/ha,[3],0%
same,pest or weed control at 1000 g/ha,[4],0%
same,pest or weed control at 1000 g/ha,[5],0%
same,pest or weed control at 1000 g/ha,Solanum nigrum (SOLNI) [6],0%
same,pest or weed control at 1000 g/ha,[7],0%
same,pest or weed control at 1000 g/ha,Setaria faberi (SETFA) [8],0%
same,pest or weed control at 1000 g/ha,[9],0%
same,pest or weed control at 1000 g/ha,[10],0%
same,pest or weed control at 1000 g/ha,[11],0%
same,pest or weed control at 1000 g/ha,Solanum nigrum (SOLNI) [12],0%
"COC(=O)c1nc(-c2cccnc2OCC(F)(F)F)nc(N)c1Cl [Compound 2-166, 4-Amino-5-chloro-6-methoxycarbonyl-2-(2-[2,2,2-trifluoroethoxy]-pyridin-3-yl)-pyrimidine]",pest or weed control at 250 g/ha,[1],0%
same,pest or weed control at 250 g/ha,Setaria faberi (SETFA) [2],0%
same,pest or weed control at 250 g/ha,[3],0%
same,pest or weed control at 250 g/ha,[4],0%
same,pest or weed control at 250 g/ha,[5],0%
same,pest or weed control at 250 g/ha,Solanum nigrum (SOLNI) [6],0%
same,pest or weed control at 250 g/ha,[7],0%
same,pest or weed control at 250 g/ha,Setaria faberi (SETFA) [8],0%
same,pest or weed control at 250 g/ha,[9],0%
same,pest or weed control at 250 g/ha,[10],0%
same,pest or weed control at 250 g/ha,[11],0%
same,pest or weed control at 250 g/ha,Solanum nigrum (SOLNI) [12],0%
"COC(=O)c1nc(-c2cc(Cl)nc(Cl)c2)nc(N)c1Cl [Compound 2-179, 4-Amino-5-chloro-2-(2,6-dichloropyridin-4-yl)-6-methoxycarbonyl pyrimidine]",pest or weed control at 1000 g/ha,[1],30%
same,pest or weed control at 1000 g/ha,Setaria faberi (SETFA) [2],10%
same,pest or weed control at 1000 g/ha,[3],40%
same,pest or weed control at 1000 g/ha,[4],0%
same,pest or weed control at 1000 g/ha,[5],0%
same,pest or weed control at 1000 g/ha,Solanum nigrum (SOLNI) [6],30%
same,pest or weed control at 1000 g/ha,[7],0%
same,pest or weed control at 1000 g/ha,Setaria faberi (SETFA) [8],0%
same,pest or weed control at 1000 g/ha,[9],0%
same,pest or weed control at 1000 g/ha,[10],0%
same,pest or weed control at 1000 g/ha,[11],0%
same,pest or weed control at 1000 g/ha,Solanum nigrum (SOLNI) [12],0%
"CCOC(=O)c1nc(-c2ccc(Cl)s2)nc(N)c1Cl [Compound 3-2, 4-amino-5-chloro-2-(5-chlorothiophen-2-yl)-6-ethoxycarbonyl-pyrimidine]",pest or weed control at 1000 g/ha,[1],80%
same,pest or weed control at 1000 g/ha,Setaria faberi (SETFA) [2],0%
same,pest or weed control at 1000 g/ha,[3],50%
same,pest or weed control at 1000 g/ha,[4],0%
same,pest or weed control at 1000 g/ha,[5],0%
same,pest or weed control at 1000 g/ha,Solanum nigrum (SOLNI) [6],70%
same,pest or weed control at 1000 g/ha,[7],30%
same,pest or weed control at 1000 g/ha,Setaria faberi (SETFA) [8],0%
same,pest or weed control at 1000 g/ha,[9],0%
same,pest or weed control at 1000 g/ha,[10],0%
same,pest or weed control at 1000 g/ha,[11],0%
same,pest or weed control at 1000 g/ha,Solanum nigrum (SOLNI) [12],0%
"COC(=O)c1nc(-c2cnc(OC)nc2)nc(N)c1Cl [Compound 2-182, 4-Amino-5-chloro-6-methoxycarbonyl-2-(2-methoxypyrimidin-5-yl)-pyrimidine]",pest or weed control at 1000 g/ha,[1],20%
same,pest or weed control at 1000 g/ha,Setaria faberi (SETFA) [2],10%
same,pest or weed control at 1000 g/ha,[3],30%
same,pest or weed control at 1000 g/ha,[4],0%
same,pest or weed control at 1000 g/ha,[5],0%
same,pest or weed control at 1000 g/ha,Solanum nigrum (SOLNI) [6],70%
same,pest or weed control at 1000 g/ha,[7],0%
same,pest or weed control at 1000 g/ha,Setaria faberi (SETFA) [8],0%
same,pest or weed control at 1000 g/ha,[9],0%
same,pest or weed control at 1000 g/ha,[10],0%
same,pest or weed control at 1000 g/ha,[11],0%
same,pest or weed control at 1000 g/ha,Solanum nigrum (SOLNI) [12],40%
"COC(=O)c1nc(-c2ccc(OC)s2)nc(N)c1Cl [Compound 2-7, 4-Amino-5-chloro-6-methoxycarbonyl-2-(5-methoxythiophen-2-yl)-pyrimidine]",pest or weed control at 1000 g/ha,[1],100%
same,pest or weed control at 1000 g/ha,Setaria faberi (SETFA) [2],70%
same,pest or weed control at 1000 g/ha,[3],80%
same,pest or weed control at 1000 g/ha,[4],80%
same,pest or weed control at 1000 g/ha,[5],0%
same,pest or weed control at 1000 g/ha,Solanum nigrum (SOLNI) [6],80%
same,pest or weed control at 1000 g/ha,[7],90%
same,pest or weed control at 1000 g/ha,Setaria faberi (SETFA) [8],20%
same,pest or weed control at 1000 g/ha,[9],20%
same,pest or weed control at 1000 g/ha,[10],60%
same,pest or weed control at 1000 g/ha,[11],0%
same,pest or weed control at 1000 g/ha,Solanum nigrum (SOLNI) [12],0%
